In US11339130B1 (Blade Therapeutics, Inc., priority 2016, dated 2022):

What was measured:
[1] = molecular target: T1, Human Calpain 1/NS1 (Homo sapiens, UniProt P07384); test: Calpain inhibition continuous fluorescence (FRET) assay, Human Calpain 1/NS1; format: biochemical; details: read-out: Human Calpain 1/NS1 IC50
T1 sequence (P07384 1-714): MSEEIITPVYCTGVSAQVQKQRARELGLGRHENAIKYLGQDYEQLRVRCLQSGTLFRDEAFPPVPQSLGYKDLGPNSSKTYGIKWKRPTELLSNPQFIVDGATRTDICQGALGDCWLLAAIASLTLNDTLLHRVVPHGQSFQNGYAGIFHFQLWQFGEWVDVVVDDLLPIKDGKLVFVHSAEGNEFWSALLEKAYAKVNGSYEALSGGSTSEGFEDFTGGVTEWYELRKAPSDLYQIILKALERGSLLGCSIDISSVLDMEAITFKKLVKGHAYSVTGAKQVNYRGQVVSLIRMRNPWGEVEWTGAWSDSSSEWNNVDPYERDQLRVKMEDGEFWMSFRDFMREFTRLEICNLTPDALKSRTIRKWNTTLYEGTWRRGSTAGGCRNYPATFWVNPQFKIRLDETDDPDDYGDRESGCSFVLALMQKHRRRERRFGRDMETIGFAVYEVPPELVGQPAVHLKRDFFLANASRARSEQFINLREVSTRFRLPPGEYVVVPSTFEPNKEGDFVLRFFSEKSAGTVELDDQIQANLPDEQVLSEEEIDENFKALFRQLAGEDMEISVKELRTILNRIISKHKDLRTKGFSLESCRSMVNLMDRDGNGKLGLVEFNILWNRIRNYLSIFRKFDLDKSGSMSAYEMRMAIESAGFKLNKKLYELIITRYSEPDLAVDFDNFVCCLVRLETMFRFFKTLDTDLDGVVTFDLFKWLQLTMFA
T1 sequence (P04632 1-268 partner): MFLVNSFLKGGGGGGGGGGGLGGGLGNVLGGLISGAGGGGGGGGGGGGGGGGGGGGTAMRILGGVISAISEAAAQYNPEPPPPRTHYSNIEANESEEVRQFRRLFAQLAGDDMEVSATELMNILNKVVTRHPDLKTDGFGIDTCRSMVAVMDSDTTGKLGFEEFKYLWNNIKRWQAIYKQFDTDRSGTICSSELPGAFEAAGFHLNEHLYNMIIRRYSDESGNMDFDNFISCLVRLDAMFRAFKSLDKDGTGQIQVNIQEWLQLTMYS
Summary of the method: (§1)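 Calpain activity is measured kinetically with a quenched FRET peptide in 50 mM Tris pH 7.5, 100 mM NaCl, 1 mM DTT, with CaCl2 triggering activation. Rates over 1-5 min are plotted against log inhibitor to obtain IC50 by 4-parameter logistic fitting.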

[2] = molecular target: T2, Human Calpain 2/NS1 (Homo sapiens, UniProt P17655); test: Calpain inhibition continuous fluorescence (FRET) assay, Human Calpain 2/NS1; format: biochemical; details: read-out: Human Calpain 2/NS1 IC50
T2 sequence (P17655 1-700): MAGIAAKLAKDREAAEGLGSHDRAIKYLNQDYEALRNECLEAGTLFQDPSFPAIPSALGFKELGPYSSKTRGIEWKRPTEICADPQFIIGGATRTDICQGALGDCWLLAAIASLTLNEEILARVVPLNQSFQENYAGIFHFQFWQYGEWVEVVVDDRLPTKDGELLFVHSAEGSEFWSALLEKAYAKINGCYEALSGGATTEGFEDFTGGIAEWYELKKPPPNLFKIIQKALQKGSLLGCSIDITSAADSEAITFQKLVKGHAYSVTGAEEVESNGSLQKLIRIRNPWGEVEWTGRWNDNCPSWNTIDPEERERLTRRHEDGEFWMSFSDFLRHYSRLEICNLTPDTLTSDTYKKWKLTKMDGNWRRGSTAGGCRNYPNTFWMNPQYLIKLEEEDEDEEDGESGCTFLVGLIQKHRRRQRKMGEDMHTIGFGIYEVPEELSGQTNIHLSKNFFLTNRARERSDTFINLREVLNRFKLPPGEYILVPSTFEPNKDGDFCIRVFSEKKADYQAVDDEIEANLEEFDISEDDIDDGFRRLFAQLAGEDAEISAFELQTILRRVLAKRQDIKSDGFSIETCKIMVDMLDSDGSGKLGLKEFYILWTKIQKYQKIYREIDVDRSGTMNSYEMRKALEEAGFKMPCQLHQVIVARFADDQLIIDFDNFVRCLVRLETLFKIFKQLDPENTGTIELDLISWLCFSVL
T2 sequence (P04632 1-268 partner): T1 sequence (P04632 1-268 partner)
Summary of the method: as §1

[3] = molecular target: T3, Human Calpain 9/NS1 (Homo sapiens, UniProt O14815); test: Calpain inhibition continuous fluorescence (FRET) assay, Human Calpain 9/NS1; format: biochemical; details: read-out: Human Calpain 9/NS1 IC50
T3 sequence (O14815 1-690): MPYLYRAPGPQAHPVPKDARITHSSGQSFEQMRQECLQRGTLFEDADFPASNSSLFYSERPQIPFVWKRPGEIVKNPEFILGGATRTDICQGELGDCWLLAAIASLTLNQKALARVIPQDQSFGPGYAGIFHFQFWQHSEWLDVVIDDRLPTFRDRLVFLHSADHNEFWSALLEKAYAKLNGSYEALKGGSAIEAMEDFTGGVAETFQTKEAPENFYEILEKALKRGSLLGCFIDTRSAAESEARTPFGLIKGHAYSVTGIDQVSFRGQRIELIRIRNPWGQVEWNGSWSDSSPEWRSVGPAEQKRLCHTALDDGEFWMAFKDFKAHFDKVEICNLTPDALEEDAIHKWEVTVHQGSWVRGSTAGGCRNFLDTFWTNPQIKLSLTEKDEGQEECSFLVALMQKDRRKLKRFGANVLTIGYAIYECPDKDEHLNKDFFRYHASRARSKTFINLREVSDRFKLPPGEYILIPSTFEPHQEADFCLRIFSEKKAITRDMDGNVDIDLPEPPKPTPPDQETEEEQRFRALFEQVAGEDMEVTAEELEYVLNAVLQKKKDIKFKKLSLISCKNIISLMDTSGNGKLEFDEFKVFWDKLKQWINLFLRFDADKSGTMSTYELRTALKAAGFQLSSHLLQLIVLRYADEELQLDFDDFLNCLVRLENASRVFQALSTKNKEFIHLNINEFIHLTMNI
T3 sequence (P04632 1-268 partner): T1 sequence (P04632 1-268 partner)
Summary of the method: as §1

[4] = system: Calpain activity in SH-SY5Y cells (SBDP-150); test: SH-SY5Y Spectrin western blot assay (SBDP-150 breakdown product, A23187-induced); format: cell-based; details: Homo sapiens; SH-SY5Y cells, A23187-induced SBDP-150, western blot; read-out: SH-SY5Y Spectrin IC50
[5] = system: Calpain activity in SH-SY5Y cells; test: SH-SY5Y + AMC fluorescence assay (Suc-LLVY-AMC substrate); format: cell-based; details: read-out: SH-SY5Y + AMC IC50

Row | SMILES | IC50 [1] | IC50 [2] | IC50 [3] | IC50 [4] | IC50 [5]
1 | COCCOCCOc1cccc(-n2nc(C)cc2C(=O)NC(Cc2ccccc2)C(=O)C(N)=O)c1 (centres unmarked) [Compound 444, N-(4-amino-3,4-dioxo-1-phenylbutan-2-yl)-1-(3-(2-(2-methoxyethoxy)ethoxy)phenyl)-3-methyl-1H-pyrazole-5-carboxamide] | < 3 µM | < 3 µM | < 3 µM | 10 to 25 µM | < 10 µM
2 | Cc1cc(C(=O)NC(Cc2ccccc2)C(=O)C(N)=O)n(-c2ccc(C(F)(F)F)cn2)n1 (centres unmarked) [Compound 445, N-(4-amino-3,4-dioxo-1-phenylbutan-2-yl)-3-methyl-1-(5-(trifluoromethyl)pyridin-2-yl)-1H-pyrazole-5-carboxamide] | < 3 µM | < 3 µM | < 3 µM | < 10 µM | > 25 µM
3 | Cn1cc(C(=O)NC(Cc2ccccc2)C(=O)C(N)=O)c(-c2ccc(F)cc2)n1 (centres unmarked) [Compound 447, N-(4-amino-3,4-dioxo-1-phenylbutan-2-yl)-3-(4-fluorophenyl)-1-methyl-1H-pyrazole-4-carboxamide] | < 3 µM | < 3 µM | < 3 µM | 10 to 25 µM | 10 to 25 µM
4 | Cc1cc(C(=O)NC(Cc2ccccc2)C(=O)C(=O)NC2CC2)n(-c2cnccn2)n1 (centres unmarked) [Compound 454, N-(4-(cyclopropylamino)-3,4-dioxo-1-phenylbutan-2-yl)-3-methyl-1-(pyrazin-2-yl)-1H-pyrazole-5-carboxamide] | < 3 µM | < 3 µM | 3 to 10 µM | 10 to 25 µM | < 10 µM
5 | Cc1cc(C(=O)NC(Cc2ccccc2)C(=O)C(=O)NC2CC2)n(-c2ncccn2)n1 (centres unmarked) [Compound 455, N-(4-(cyclopropylamino)-3,4-dioxo-1-phenylbutan-2-yl)-3-methyl-1-(pyrimidin-2-yl)-1H-pyrazole-5-carboxamide] | 3 to 10 µM | < 3 µM | > 10 µM | > 25 µM | < 10 µM
6 | Cc1cc(C(=O)NC(Cc2ccccc2)C(=O)C(=O)NC2CC2)n(-c2ccccn2)n1 (centres unmarked) [Compound 456, N-(4-(cyclopropylamino)-3,4-dioxo-1-phenylbutan-2-yl)-3-methyl-1-(pyridin-2-yl)-1H-pyrazole-5-carboxamide] | < 3 µM | < 3 µM | < 3 µM | > 25 µM | < 10 µM
7 | Cn1cc(C(=O)NC(Cc2ccccc2)C(=O)C(=O)NC2CC2)c(-c2ccccc2)n1 (centres unmarked) [Compound 458, N-(4-(cyclopropylamino)-3,4-dioxo-1-phenylbutan-2-yl)-1-methyl-3-phenyl-1H-pyrazole-4-carboxamide] | < 3 µM | < 3 µM | < 3 µM | 10 to 25 µM | < 10 µM
8 | Cc1nc(-c2ccccc2)c(C(=O)NC(Cc2ccccc2)C(=O)C(=O)NC2CC2)o1 (centres unmarked) [Compound 459, N-(4-(cyclopropylamino)-3,4-dioxo-1-phenylbutan-2-yl)-2-methyl-4-phenyloxazole-5-carboxamide] | < 3 µM | < 3 µM | < 3 µM | 10 to 25 µM | < 10 µM
9 | CCCCC(NC(=O)c1oc(C)nc1-c1ccccc1)C(=O)C(=O)NC1CC1 (centres unmarked) [Compound 460, N-(1-(cyclopropylamino)-1,2-dioxoheptan-3-yl)-2-methyl-4-phenyloxazole-5-carboxamide] | < 3 µM | < 3 µM | < 3 µM | > 25 µM | > 25 µM
10 | O=C(NC1CC1)C(=O)C(Cc1ccccc1)NC(=O)c1cnoc1-c1ccccc1 (centres unmarked) [Compound 461, N-(4-(cyclopropylamino)-3,4-dioxo-1-phenylbutan-2-yl)-5-phenylisoxazole-4-carboxamide] | < 3 µM | < 3 µM | < 3 µM | < 10 µM | > 25 µM
11 | NC(=O)C(=O)C(CCc1ccccc1)NC(=O)c1nsnc1-c1ccccc1 (centres unmarked) [Compound 463, N-(1-amino-1,2-dioxo-5-phenylpentan-3-yl)-4-phenyl-1,2,5-thiadiazole-3-carboxamide] | < 3 µM | < 3 µM | < 3 µM | < 10 µM | > 25 µM
12 | NC(=O)C(=O)C(Cc1ccc(F)cc1)NC(=O)c1nsnc1-c1ccccc1 (centres unmarked) [Compound 464, N-(4-amino-1-(4-fluorophenyl)-3,4-dioxobutan-2-yl)-4-phenyl-1,2,5-thiadiazole-3-carboxamide] | < 3 µM | < 3 µM | < 3 µM | < 10 µM | < 10 µM
13 | CC(C)CC(NC(=O)c1nsnc1-c1ccccc1)C(=O)C(N)=O (centres unmarked) [Compound 465, N-(1-amino-5-methyl-1,2-dioxohexan-3-yl)-4-phenyl-1,2,5-thiadiazole-3-carboxamide] | < 3 µM | < 3 µM | < 3 µM | < 10 µM | > 25 µM
14 | Cc1cc(C)cc(CC(NC(=O)c2nsnc2-c2ccccc2)C(=O)C(N)=O)c1 (centres unmarked) [Compound 466, N-(4-amino-1-(3,5-dimethylphenyl)-3,4-dioxobutan-2-yl)-4-phenyl-1,2,5-thiadiazole-3-carboxamide] | < 3 µM | < 3 µM | < 3 µM | < 10 µM | > 25 µM
15 | CCCCC(NC(=O)c1nsnc1-c1ccccc1)C(=O)C(N)=O (centres unmarked) [Compound 467, N-(1-amino-1,2-dioxoheptan-3-yl)-4-phenyl-1,2,5-thiadiazole-3-carboxamide] | < 3 µM | < 3 µM | < 3 µM | < 10 µM | > 25 µM
16 | CC(NC(=O)c1nsnc1-c1ccccc1)C(=O)C(N)=O (centres unmarked) [Compound 468, N-(4-amino-3,4-dioxobutan-2-yl)-4-phenyl-1,2,5-thiadiazole-3-carboxamide] | < 3 µM | < 3 µM | < 3 µM | < 10 µM | > 25 µM
